Five compounds from patent US9980943B2, “Methods of treating muscular dystrophy” (BOARD OF REGENTS OF THE NEVADA SYSTEM OF HIGHER EDUCATION, …, priority 2013, dated 2018) can be followed below.

Format in all cases: cell-based, mouse
Test [1] concerns α7 integrin (LacZ reporter in α7βgal+/− myoblasts). As to the kind of experiment: Myoblast α7+/LacZ integrin FDG assay (Burkin assay in myoblasts, 96-well). The settings on record: for Burkin Assay in Myoblasts, signal relative to DMSO: α7+/LacZ myoblasts; for Burkin Assay in Myoblasts, signal relative to DMSO / Burkin Assay in Myoblasts, value relative to DMSO: 96-well; for Burkin Assay in Myoblasts, value relative to DMSO: SU9516 analogs, N=3-6.

The test system of test [2] is α7 integrin (LacZ reporter in α7+/LacZ myotubes). As to the kind of experiment: Myotube α7 integrin FDG assay (Burkin assay in myotubes, 96-well). The settings on record: for Burkin Assay in Myotubes, value relative to DMSO: SU9516 analogs, 96-well, N=3-6.
The subject of test [3] is β-galactosidase in CMV-LacZ C2C12 myoblasts. As to the kind of experiment: CMV-LacZ secondary screen in C2C12 myoblasts (β-Gal stabilizing assay). The settings on record: for CMV-LACZ in Myoblasts (β-galactosidase activity relative to DMSO): CMV-LacZ C2C12 myoblasts; for CMV-LACZ in Myoblasts, value relative to DMSO: SU9516 analogs, C2C12 CMV-LacZ, N=2. Put shortly: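 A secondary screen identifies compounds that stabilize β-gal independently of the native promoter, using CMV-LacZ C2C12 cells. Curves span 0.5–40 μM at six levels, in duplicate.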

For test [4], the system named is β-galactosidase in CMV-LacZ C2C12 myotubes. As to the kind of experiment: CMV-LacZ secondary screen in C2C12 myotubes (β-Gal stabilizing assay). The settings on record: for CMV-LACZ in Myotubes, signal relative to DMSO: C2C12 CMV-LacZ myotubes, fold relative to DMSO; for CMV-LACZ in Myotubes, value relative to DMSO: SU9516 analogs, C2C12 CMV-LacZ, N=2. Put shortly: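 β-Gal level was the read-out, measured in a clonal C2C12 line expressing LacZ from a CMV promoter. Dose-response curves used six concentrations, 0.5 μM up to 40 μM, with duplicate points.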

Setting [5] is: Mus musculus, Myoblast, 48 h, read-out: Burkin Assay in Myoblasts, value relative to DMSO.

Structures are written as SMILES.

In the case of `O=C(Nc1ccccc1OC(=O)c1ccc(Cl)cc1)c1ccc(Cl)cc1` [MLS000573208-01], the “Burkin Assay in Myoblasts, signal relative to DMSO” value was 1.031 in test [1] (0.5 uM); 1.015 in test [1] (1 uM); 0.9523 in test [1] (5 uM); 0.8121 in test [1] (10 uM); 1.632 in test [1] (20 uM); 0.6235 in test [1] (40 uM). Further, the “Burkin Assay in Myotubes, α7 integrin LacZ reporter signal relative to DMSO” value is 0.9453 in test [2] (0.5 uM); 1.007 in test [2] (1 uM); 0.98 in test [2] (5 uM); 1.045 in test [2] (10 uM); 0.8239 in test [2] (20 uM); 0.5966 in test [2] (40 uM). In addition, the “CMV-LACZ in Myoblasts (β-galactosidase activity relative to DMSO)” value stood at 1.0197 in test [3] (0.5 uM); 0.9594 in test [3] (1 uM); 1.1030 in test [3] (5 uM); 0.8678 in test [3] (10 uM); 0.6626 in test [3] (20 uM); 0.9289 in test [3] (40 uM). Also, the “CMV-LACZ in Myotubes, signal relative to DMSO” value was 0.9547 in test [4] (0.5 uM); 1.3021 in test [4] (1 uM); 1.1765 in test [4] (5 uM); 0.8913 in test [4] (10 uM); 0.9633 in test [4] (20 uM); 0.9478 in test [4] (40 uM).
On to `CCc1nc(/C=C2\C(=O)Nc3ccccc32)c[nH]1` [MLS000834755-01], for which, in test [1] (setting [5]), the fold induction at 0.5 µM worked out at 1.27. The fold induction at 1 µM in test [1] (setting [5]) was found to be 1.08. Besides, in test [1] (setting [5]), the fold induction at 5 µM was determined as 1.08. Also, in test [1] (setting [5]), the fold induction at 10 µM amounted to 1.16. The fold induction at 20 µM in test [1] (setting [5]) came out at 1.19. For the same compound, in test [1] (setting [5]), the fold induction at 40 µM worked out at 0.796. Also, the “Burkin Assay in Myotubes, value relative to DMSO” value came to 1.263 in test [2] (0.5 uM); 1.232 in test [2] (1 uM); 1.003 in test [2] (5 uM); 0.9868 in test [2] (10 uM); 0.9687 in test [2] (20 uM); 0.816 in test [2] (40 uM). Moreover, the “CMV-LACZ in Myoblasts, value relative to DMSO” value was 1.0317 in test [3] (0.5 uM); 1.0400 in test [3] (1 uM); 0.9591 in test [3] (5 uM); 0.9834 in test [3] (10 uM); 0.9007 in test [3] (20 uM); 0.9133 in test [3] (40 uM). Besides, the “CMV-LACZ in Myotubes, value relative to DMSO” value worked out at 0.5547 in test [4] (0.5 uM); 1.2863 in test [4] (1 uM); 1.0514 in test [4] (5 uM); 1.1048 in test [4] (10 uM); 1.2989 in test [4] (20 uM); 0.8789 in test [4] (40 uM).
Consider `COCCSc1ccccc1C(=O)Nc1cc(C)cc(C)c1` [MLS000675441-01], for which the “Burkin Assay in Myoblasts, signal relative to DMSO” value is 0.9397 in test [1] (0.5 uM); 0.8764 in test [1] (1 uM); 1.044 in test [1] (5 uM); 1.248 in test [1] (10 uM); 0.9015 in test [1] (20 uM); 0.8996 in test [1] (40 uM). The “Burkin Assay in Myotubes, α7 integrin LacZ reporter signal relative to DMSO” value in test [2] (0.5 uM) worked out at 0.8552; in test [2] (1 uM), 1.071; in test [2] (5 uM) it was 0.9591; in test [2] (10 uM), 1.119; in test [2] (20 uM) it was 0.7476; in test [2] (40 uM), 0.7168. Moreover, the “CMV-LACZ in Myoblasts (β-galactosidase activity relative to DMSO)” value in test [3] (0.5 uM) is listed as 1.0332; in test [3] (1 uM), 0.9289; in test [3] (5 uM), 0.8800; in test [3] (10 uM), 0.8690; in test [3] (20 uM), 0.8656; in test [3] (40 uM) it was 0.7437. Further, the “CMV-LACZ in Myotubes, signal relative to DMSO” value in test [4] (0.5 uM) was found to be 1.0074; in test [4] (1 uM), 1.1032; in test [4] (5 uM), 1.0460; in test [4] (10 uM) it was 1.0337; in test [4] (20 uM) it was 0.9578; in test [4] (40 uM), 0.9822.
As for `CCOc1cc2c3c(c1)C(C)=CC(C)(C)N3C(=O)C2=O` [MLS000710233-01], the “Burkin Assay in Myoblasts, value relative to DMSO” value is on record as 1.17 in test [1] (0.5 uM); 1.159 in test [1] (1 uM); 0.8066 in test [1] (5 uM); 0.5637 in test [1] (10 uM); 0.1723 in test [1] (20 uM); 0.1743 in test [1] (40 uM). Further, the “Burkin Assay in Myotubes, value relative to DMSO” value is 1.11 in test [2] (0.5 uM); 1.033 in test [2] (1 uM); 0.9331 in test [2] (5 uM); 0.8688 in test [2] (10 uM); 0.6933 in test [2] (20 uM); 0.6295 in test [2] (40 uM). Further, the “CMV-LACZ in Myoblasts, value relative to DMSO” value was determined as 1.0173 in test [3] (0.5 uM); 0.8263 in test [3] (1 uM); 0.8263 in test [3] (5 uM); 0.8509 in test [3] (10 uM); 0.8530 in test [3] (20 uM); 0.8779 in test [3] (40 uM). The “CMV-LACZ in Myotubes, value relative to DMSO” value is on record as 0.8781 in test [4] (0.5 uM); 0.9410 in test [4] (1 uM); 0.9060 in test [4] (5 uM); 1.0698 in test [4] (10 uM); 1.1130 in test [4] (20 uM); 1.1380 in test [4] (40 uM).
As for `Cc1ccc2c(c1)/C(=C/c1ccc(F)cc1)C(=O)N2` [MLS001202366-01], the “Burkin Assay in Myoblasts, value relative to DMSO” value in test [1] (0.5 uM) was found to be 1.007; in test [1] (1 uM) it was 0.9698; in test [1] (5 uM), 0.8762; in test [1] (10 uM), 0.7458; in test [1] (20 uM) it was 0.4873; in test [1] (40 uM), 0.2456. In addition, the “Burkin Assay in Myotubes, value relative to DMSO” value in test [2] (0.5 uM) is reported as 1.114; in test [2] (1 uM) it was 1.099; in test [2] (5 uM) it was 1.089; in test [2] (10 uM), 0.9194; in test [2] (20 uM), 0.5272; in test [2] (40 uM) it was 0.5105. The “CMV-LACZ in Myoblasts, value relative to DMSO” value in test [3] (0.5 uM) was determined as 0.7656; in test [3] (1 uM), 0.6431; in test [3] (5 uM), 1.0533; in test [3] (10 uM), 1.3214; in test [3] (20 uM), 0.7222; in test [3] (40 uM), 0.3322. Moreover, the “CMV-LACZ in Myotubes, value relative to DMSO” value in test [4] (0.5 uM) was determined as 0.9844; in test [4] (1 uM), 1.0570; in test [4] (5 uM) it was 0.8072; in test [4] (10 uM), 0.9927; in test [4] (20 uM), 0.8329; in test [4] (40 uM), 1.0847.
